Consider 46 molecules from ChEMBL document CHEMBL1136688, “Synthesis and SAR of aminoalkoxy-biaryl-4-carboxamides: novel and selective histamine H3 receptor antagonists” (Bioorg Med Chem Lett, 2003).

The target of assay [1] is Histamine H3 receptor (Homo sapiens, UniProt Q9Y5N1). The assay is described as follows: Binding affinity for human recombinant H3 receptor.
The target of assay [2] is Histamine H3 receptor (Rattus norvegicus, UniProt Q9QYN8). The assay is described as follows: Binding affinity towards rat cortical H3 receptor.
Chain of Histamine H3 receptor (Rattus norvegicus, UniProt Q9QYN8) (Q9QYN8 whole entry): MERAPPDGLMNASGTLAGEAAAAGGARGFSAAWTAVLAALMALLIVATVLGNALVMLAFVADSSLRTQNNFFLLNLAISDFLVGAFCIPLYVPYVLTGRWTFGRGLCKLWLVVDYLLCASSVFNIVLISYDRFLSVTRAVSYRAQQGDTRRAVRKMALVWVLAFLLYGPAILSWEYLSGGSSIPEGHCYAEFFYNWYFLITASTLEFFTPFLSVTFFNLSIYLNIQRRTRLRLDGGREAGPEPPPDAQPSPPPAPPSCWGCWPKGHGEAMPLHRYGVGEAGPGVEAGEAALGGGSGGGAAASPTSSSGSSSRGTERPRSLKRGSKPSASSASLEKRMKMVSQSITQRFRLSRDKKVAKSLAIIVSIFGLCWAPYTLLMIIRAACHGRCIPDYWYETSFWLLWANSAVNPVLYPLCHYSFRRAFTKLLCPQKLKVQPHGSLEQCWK
For assay [3], the target named is Histamine H1 receptor (Homo sapiens, UniProt P35367). The assay is described as follows: Binding affinity towards human histamine (H1) receptor.
Chain of Histamine H1 receptor (P35367 whole entry): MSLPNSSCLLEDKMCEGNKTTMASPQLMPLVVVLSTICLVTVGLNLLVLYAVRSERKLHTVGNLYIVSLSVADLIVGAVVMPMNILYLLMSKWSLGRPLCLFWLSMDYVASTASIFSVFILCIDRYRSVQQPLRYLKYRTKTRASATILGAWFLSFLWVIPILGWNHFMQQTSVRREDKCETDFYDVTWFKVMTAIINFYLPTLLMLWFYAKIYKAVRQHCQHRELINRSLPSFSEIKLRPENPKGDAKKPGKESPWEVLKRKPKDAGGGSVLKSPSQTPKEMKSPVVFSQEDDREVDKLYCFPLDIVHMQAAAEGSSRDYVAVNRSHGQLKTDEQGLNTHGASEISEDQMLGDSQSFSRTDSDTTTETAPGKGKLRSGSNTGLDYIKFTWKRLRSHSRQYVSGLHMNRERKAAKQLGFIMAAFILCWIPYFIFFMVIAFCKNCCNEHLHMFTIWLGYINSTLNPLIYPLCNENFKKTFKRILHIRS
In assay [4] the target is Histamine H2 receptor (Homo sapiens, UniProt P25021). The assay is described as follows: Binding affinity towards human histamine (H2) receptor.
Chain of Histamine H2 receptor (P25021 whole entry): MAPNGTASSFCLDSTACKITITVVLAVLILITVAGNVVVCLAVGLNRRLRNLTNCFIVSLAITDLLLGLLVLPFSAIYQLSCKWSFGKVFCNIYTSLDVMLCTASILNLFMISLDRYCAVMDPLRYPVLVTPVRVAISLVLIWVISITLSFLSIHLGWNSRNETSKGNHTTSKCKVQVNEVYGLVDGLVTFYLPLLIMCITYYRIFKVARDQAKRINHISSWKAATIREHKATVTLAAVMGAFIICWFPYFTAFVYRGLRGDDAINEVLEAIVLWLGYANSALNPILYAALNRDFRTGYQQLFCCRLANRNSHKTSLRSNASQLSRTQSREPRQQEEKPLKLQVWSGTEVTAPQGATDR

Chain of Histamine H3 receptor (Homo sapiens, UniProt Q9Y5N1) (Q9Y5N1 whole entry): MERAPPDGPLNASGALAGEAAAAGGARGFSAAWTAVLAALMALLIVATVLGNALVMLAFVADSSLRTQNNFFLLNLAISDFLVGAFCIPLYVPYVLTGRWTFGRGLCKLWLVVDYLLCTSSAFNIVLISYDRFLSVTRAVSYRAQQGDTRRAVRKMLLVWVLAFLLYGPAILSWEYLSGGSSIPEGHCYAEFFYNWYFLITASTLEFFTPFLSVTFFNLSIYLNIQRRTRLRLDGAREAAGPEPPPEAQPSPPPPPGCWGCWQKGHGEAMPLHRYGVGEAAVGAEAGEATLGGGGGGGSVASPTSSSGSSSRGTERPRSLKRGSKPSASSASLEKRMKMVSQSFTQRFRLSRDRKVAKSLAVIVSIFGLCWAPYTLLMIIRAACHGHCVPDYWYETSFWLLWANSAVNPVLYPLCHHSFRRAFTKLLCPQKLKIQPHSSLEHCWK

One may read the Ki as a dissociation constant, usually derived from enzyme kinetics or from competition with a known ligand. Take `CC1CCN(C(=O)c2ccc(-c3ccc(OCCCN4CC[C@H](O)C4)cc3)cc2)CC1`: the Ki was 6.92 nM in assay [1] and 30.9 nM in assay [2].
In the case of `CC1CCN(CCCOc2ccc(-c3ccc(C(=O)N4CCC(C)CC4)cc3)cc2)CC1`, the Ki in assay [1] was 10.7 nM; in assay [2], 20.9 nM.
Taken in the same sequence, the figures for `CC(C)NCCCOc1ccc(-c2ccc(C(=O)N3CCCC3C)cc2)cc1` (configuration not stated) were 9.77 nM and 42.7 nM.
With `CCN(CC)CCCOc1ccc(-c2ccc(C(=O)N3CCOCC3)cc2)cc1`, the Ki was 2.4 nM in assay [1] and 8.91 nM in assay [2].
On the same counts, the results for `CC(C)N(C)C(=O)c1ccc(-c2ccc(OCCCN3CC[C@H](O)C3)cc2)cc1` are 8.13 nM and 28.8 nM.
On to `CCN(CC)CCCOc1ccc(-c2ccc(C(=O)N3CCCC3)cc2)cc1`, for which the Ki in assay [1] was 3.02 nM; in assay [2], 12.9 nM.
As to `O=C(c1ccc(-c2ccc(OCCCN3CCCC3)cc2)cc1)N1CCCC1`, the Ki in assay [3] is above 1910 nM; in assay [1], 1.12 nM; in assay [2], 6.61 nM; in assay [4] it was above 1910 nM.
Regarding `CC1CCCN1C(=O)c1ccc(-c2ccc(OCCCN3CC[C@H](O)C3)cc2)cc1` (some centres not stated), the Ki in assay [1] was 8.32 nM; in assay [2], 25.7 nM.
Consider `O=C(c1ccc(-c2ccc(OCCCN3CCOCC3)cc2)cc1)N1CCOCC1`, for which the values for the Ki in assay [1] and in assay [2] were 18.2 nM and 52.5 nM, respectively.
As to `CC1CCN(C(=O)c2ccc(-c3ccc(OCCCNC(C)C)cc3)cc2)CC1`, the Ki is 182 nM in assay [1] and 479 nM in assay [2].
As to `C[C@H]1CC[C@H](C)N1C(=O)c1ccc(-c2ccc(OCCCN3CC[C@H](O)C3)cc2)cc1`, the Ki in assay [1] is 11.2 nM; in assay [2] it was 57.5 nM.
With `CCN(CC)C(=O)c1ccc(-c2ccc(OCCCN3[C@@H](C)CC[C@@H]3C)cc2)cc1`, the Ki in assay [1] was 0.776 nM.
With `CC(C)NCCCOc1ccc(-c2ccc(C(=O)N3CCOCC3)cc2)cc1`, the Ki was 32.4 nM in assay [1] and 129 nM in assay [2].
Take `CC1CCN(C(=O)c2ccc(-c3ccc(OCCCN4CC[C@@H](N(C)C)C4)cc3)cc2)CC1`: the results for the Ki in assay [1] and in assay [2] were 3.89 nM and 29.5 nM, respectively.
For the molecule `O=C(c1ccc(-c2ccc(OCCCN3CC[C@H](O)C3)cc2)cc1)N1CCCC1`, the Ki in assay [1] was 6.46 nM; in assay [2], 33.1 nM.
With `CC1CCN(C(=O)c2ccc(-c3ccc(OCCCN4[C@@H](C)CC[C@@H]4C)cc3)cc2)CC1`, the figures for the Ki in assay [1] and in assay [2] were 0.603 nM and 2.95 nM, respectively.
Consider `CC1CCN(CCCOc2ccc(-c3ccc(C(=O)NC(C)C)cc3)cc2)CC1`, for which the Ki was 2.09 nM in assay [1] and 3.8 nM in assay [2].
Taken in the same sequence, the figures for `CN(C)[C@@H]1CCN(CCCOc2ccc(-c3ccc(C(=O)N4CCCC4)cc3)cc2)C1` were 2.88 nM and 18.6 nM.
In the case of `CC1CCCN1C(=O)c1ccc(-c2ccc(OCCCN3[C@@H](C)CC[C@@H]3C)cc2)cc1` (some centres not stated), the Ki was 0.776 nM in assay [1] and 1.02 nM in assay [2].
Regarding `C[C@H]1CC[C@H](C)N1C(=O)c1ccc(-c2ccc(OCCCN3CC[C@H](N(C)C)C3)cc2)cc1`, the inhibition constant (Ki) was 4.37 nM in assay [1] and 17.4 nM in assay [2].
As for `CCN(CC)C(=O)c1ccc(-c2ccc(OCCCN3CCC(C)CC3)cc2)cc1`, the values for the Ki in assay [1] and in assay [2] were 4.79 nM and 9.12 nM, respectively.
Take `O=C(c1ccc(-c2ccc(OCCCN3CCOCC3)cc2)cc1)N1CCCC1`: the Ki in assay [1] was 40.7 nM; in assay [2], 178 nM.
On the same counts, the results for `CC(C)NCCCOc1ccc(-c2ccc(C(=O)N3[C@@H](C)CC[C@@H]3C)cc2)cc1` are 229 nM and 219 nM.
On to `CCN(CC)C(=O)c1ccc(-c2ccc(OCCCN3CC[C@H](O)C3)cc2)cc1`, for which the Ki in assay [1] was 8.13 nM; in assay [2], 42.7 nM.
On to `CC1CCN(CCCOc2ccc(-c3ccc(C(=O)N4CCOCC4)cc3)cc2)CC1`, for which the Ki was 7.24 nM in assay [1] and 8.71 nM in assay [2].
Take `CCN(CC)CCCOc1ccc(-c2ccc(C(=O)N3[C@@H](C)CC[C@@H]3C)cc2)cc1`: the Ki in assay [1] is 5.13 nM; in assay [2], 13.8 nM.
For the molecule `CC(C)(C)CCC#C[C@@H]1C[C@H]1c1c[nH]cn1` [CIPRALISANT], the Ki in assay [1] is 2.14 nM; in assay [2], 0.195 nM.
As to `CCN(CC)CCCOc1ccc(-c2ccc(C(=O)N3CCCC3C)cc2)cc1` (configuration not stated), the inhibition constant Ki in assay [1] was 2.14 nM; in assay [2] it was 7.24 nM.
On to `CC1CCN(C(=O)c2ccc(-c3ccc(OCCCN4CCOCC4)cc3)cc2)CC1`, for which the figures for the Ki in assay [1] and in assay [2] were 23.4 nM and 70.8 nM, respectively.
On to `CC1CCCN1C(=O)c1ccc(-c2ccc(OCCCN3CC[C@H](N(C)C)C3)cc2)cc1` (some centres not stated), for which the figures for the Ki in assay [1] and in assay [2] were 6.46 nM and 21.4 nM, respectively.
Taken in the same sequence, the figures for `CN(C)[C@@H]1CCN(CCCOc2ccc(-c3ccc(C(=O)N4CCOCC4)cc3)cc2)C1` were 5.5 nM and 27.5 nM.
In the case of `C[C@H]1CC[C@H](C)N1CCCOc1ccc(-c2ccc(C(=O)N3CCCC3)cc2)cc1`, the Ki in assay [1] was 0.692 nM; in assay [2] it was 5.13 nM.
On the same counts, the results for `CCN(CC)C(=O)c1ccc(-c2ccc(OCCCN3CC[C@H](N(C)C)C3)cc2)cc1` are 6.92 nM and 28.2 nM.
With `CC1CCN(CCCOc2ccc(-c3ccc(C(=O)N4CCCC4)cc3)cc2)CC1`, the results for the Ki in assay [1] and in assay [2] were 3.63 nM and 10.2 nM, respectively.
On the same counts, the results for `CC(C)NC(=O)c1ccc(-c2ccc(OCCCN3CCOCC3)cc2)cc1` are 38.9 nM and 135 nM.
For `C[C@H]1CC[C@H](C)N1CCCOc1ccc(-c2ccc(C(=O)N3[C@@H](C)CC[C@@H]3C)cc2)cc1`, the Ki in assay [1] was 0.977 nM.
Turning to `CCN(CC)C(=O)c1ccc(-c2ccc(OCCCNC(C)C)cc2)cc1`, the inhibition constant Ki in assay [1] was 110 nM; in assay [2], 407 nM.
On the same counts, the results for `O=C(c1ccc(-c2ccc(OCCCN3CC[C@H](O)C3)cc2)cc1)N1CCOCC1` are 6.17 nM and 32.4 nM.
Consider `CC1CCCN1C(=O)c1ccc(-c2ccc(OCCCN3CCOCC3)cc2)cc1` (configuration not stated), for which the inhibition constant (Ki) in assay [1] is 24.5 nM; in assay [2] it was 112 nM.
On to `CCN(CC)CCCOc1ccc(-c2ccc(C(=O)NC(C)C)cc2)cc1`, for which the Ki in assay [1] was 6.17 nM; in assay [2], 16.2 nM.
`CC1CCN(CCCOc2ccc(-c3ccc(C(=O)N4[C@@H](C)CC[C@@H]4C)cc3)cc2)CC1`: the Ki in assay [1] was 4.68 nM; in assay [2], 3.63 nM.
Taken in the same sequence, the figures for `C[C@H]1CC[C@H](C)N1C(=O)c1ccc(-c2ccc(OCCCN3CCOCC3)cc2)cc1` were 37.2 nM and 115 nM.
On the same counts, the results for `CCN(CC)CCCOc1ccc(-c2ccc(C(=O)N3CCC(C)CC3)cc2)cc1` are 3.47 nM and 8.32 nM.
With `CCN(CC)C(=O)c1ccc(-c2ccc(OCCCN3CCOCC3)cc2)cc1`, the Ki in assay [1] is 16.2 nM; in assay [2], 97.7 nM.
For `CC1CCN(CCCOc2ccc(-c3ccc(C(=O)N4CCCC4C)cc3)cc2)CC1` (configuration not stated), the figures for the Ki in assay [1] and in assay [2] were 3.72 nM and 2.82 nM, respectively.
As to `CC(C)NC(=O)c1ccc(-c2ccc(OCCCN3[C@@H](C)CC[C@@H]3C)cc2)cc1`, the Ki in assay [1] is 0.851 nM; in assay [2], 2.82 nM.
